# Key:
# [1] = molecular target: T1, Cytochrome P450 11B2, mitochondrial (Homo sapiens, UniProt P19099); assay: Inhibition of human CYP11B2 expressed in hamster V79MZ cells using [1,2-3H]11-deoxycorticosterone as substrate preincubated for 60 mins prior to substrate addition measured after 50 mins by HPLC analysis
# T1 sequence (P19099 whole entry): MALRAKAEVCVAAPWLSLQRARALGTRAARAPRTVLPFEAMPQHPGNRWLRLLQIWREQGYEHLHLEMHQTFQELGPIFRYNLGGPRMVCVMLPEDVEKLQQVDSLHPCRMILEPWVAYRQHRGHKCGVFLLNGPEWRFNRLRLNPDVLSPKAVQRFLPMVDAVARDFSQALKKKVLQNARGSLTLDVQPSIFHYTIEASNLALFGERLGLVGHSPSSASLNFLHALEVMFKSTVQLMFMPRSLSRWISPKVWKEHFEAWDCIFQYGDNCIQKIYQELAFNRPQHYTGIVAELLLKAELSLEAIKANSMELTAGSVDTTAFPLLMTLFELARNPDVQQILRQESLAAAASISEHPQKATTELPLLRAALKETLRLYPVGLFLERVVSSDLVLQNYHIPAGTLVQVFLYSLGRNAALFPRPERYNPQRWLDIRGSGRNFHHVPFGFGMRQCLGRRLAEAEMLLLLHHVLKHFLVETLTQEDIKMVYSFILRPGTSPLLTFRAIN
# [2] = molecular target: T2, Cytochrome P450 11B1, mitochondrial (Homo sapiens, UniProt P15538); assay: Inhibition of human CYP11B1 expressed in hamster V79MZ cells using [1,2-3H]11-deoxycorticosterone as substrate preincubated for 60 mins prior to substrate addition measured after 25 mins by HPLC analysis
# T2 sequence (P15538 whole entry): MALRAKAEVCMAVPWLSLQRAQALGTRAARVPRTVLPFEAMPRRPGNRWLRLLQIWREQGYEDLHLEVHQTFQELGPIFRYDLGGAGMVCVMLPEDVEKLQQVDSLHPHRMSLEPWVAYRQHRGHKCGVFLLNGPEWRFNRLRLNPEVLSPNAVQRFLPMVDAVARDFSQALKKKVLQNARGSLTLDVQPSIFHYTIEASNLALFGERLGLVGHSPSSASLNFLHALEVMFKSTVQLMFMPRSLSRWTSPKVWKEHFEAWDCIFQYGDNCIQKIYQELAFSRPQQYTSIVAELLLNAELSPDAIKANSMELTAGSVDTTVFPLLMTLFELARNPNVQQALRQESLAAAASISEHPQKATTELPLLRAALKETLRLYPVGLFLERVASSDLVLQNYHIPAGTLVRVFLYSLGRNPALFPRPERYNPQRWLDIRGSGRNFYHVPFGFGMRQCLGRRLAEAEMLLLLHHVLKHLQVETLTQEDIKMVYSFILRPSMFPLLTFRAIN
SMILES,IC50 [1] [nM],IC50 [2] [nM]
c1ccc2c(-c3ccc(Cn4ccnc4)cn3)cccc2c1,2080,42
c1ccc2c(-c3ccc(Cn4ccnc4)cn3)csc2c1,1160,40
Nc1ccccc1-c1ccc(Cn2ccnc2)cn1,2110,101
Nc1cccc(-c2ccc(Cn3ccnc3)cn2)c1,3410,110

# Stronger by IC50 [1], values ahead:
IC50 [1] [nM],IC50 [2] [nM],SMILES
911,61,Brc1ncccc1Cn1ccnc1
528,106,Nc1ccc(-c2ccc(Cn3ccnc3)cn2)cc1
251,16,c1csc(-c2ncccc2Cn2ccnc2)c1
237,17,Oc1ccc(-c2ccc(Cn3ccnc3)cn2)cc1F
